Experimental data published in PubChem BioAssay (NCI).
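Method: 48-hour compound exposure of cells in 96-well plates, five concentrations, linear interpolation of endpoints. The concentration for full growth arrest is given as TGI.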

Experiments:
Assay in all cases: inhibition of tumour cell growth, NCI panel, 48 h
OVCAR-8 ovarian = system: OVCAR-8 ovarian
RXF 393 renal = system: RXF 393 renal
TK-10 renal = system: TK-10 renal
A498 renal = system: A498 renal
HOP-62 NSCLC = system: HOP-62 NSCLC
HOP-92 NSCLC = system: HOP-92 NSCLC
HCT-116 colon = system: HCT-116 colon
KM12 colon = system: KM12 colon
HT29 colon = system: HT29 colon
OVCAR-4 ovarian = system: OVCAR-4 ovarian
MOLT-4 leukemia = system: MOLT-4 leukemia
A549 NSCLC = system: A549 NSCLC
HS 578T breast = system: HS 578T breast
NCI-H460 lung = system: NCI-H460 lung
MCF7 breast = system: MCF7 breast
CCRF-CEM leukemia = system: CCRF-CEM leukemia
UO-31 renal = system: UO-31 renal
HCT-15 colon = system: HCT-15 colon
CAKI-1 renal = system: CAKI-1 renal
SN12C renal = system: SN12C renal
SK-OV-3 ovarian = system: SK-OV-3 ovarian
BT-549 breast = system: BT-549 breast
786-0 renal = system: 786-0 renal
IGROV1 ovarian = system: IGROV1 ovarian
RPMI-8226 leukemia = system: RPMI-8226 leukemia
PC-3 prostate = system: PC-3 prostate
MDA-N = system: MDA-N
SK-MEL-5 melanoma = system: SK-MEL-5 melanoma
SF-539 CNS = system: SF-539 CNS
DU-145 prostate = system: DU-145 prostate
U251 CNS = system: U251 CNS
ACHN renal = system: ACHN renal
SW-620 colon = system: SW-620 colon
COLO 205 colon = system: COLO 205 colon
SNB-75 CNS = system: SNB-75 CNS
UACC-257 melanoma = system: UACC-257 melanoma
SF-268 CNS = system: SF-268 CNS
MDA-MB-435 = system: MDA-MB-435
LOX IMVI melanoma = system: LOX IMVI melanoma
SF-295 CNS = system: SF-295 CNS
NCI-H226 lung = system: NCI-H226 lung
MALME-3M melanoma = system: MALME-3M melanoma
HCC-2998 colon = system: HCC-2998 colon
M14 melanoma = system: M14 melanoma
T-47D breast = system: T-47D breast
SR leukemia = system: SR leukemia
OVCAR-5 ovarian = system: OVCAR-5 ovarian
UACC-62 melanoma = system: UACC-62 melanoma
EKVX NSCLC = system: EKVX NSCLC
OVCAR-3 ovarian = system: OVCAR-3 ovarian
MDA-MB-231 breast = system: MDA-MB-231 breast
SK-MEL-2 melanoma = system: SK-MEL-2 melanoma
SNB-19 CNS = system: SNB-19 CNS
NCI-H522 lung = system: NCI-H522 lung
SK-MEL-28 melanoma = system: SK-MEL-28 melanoma
NCI/ADR-RES ovarian = system: NCI/ADR-RES ovarian
NCI-H23 lung = system: NCI-H23 lung
K-562 leukemia = system: K-562 leukemia
HL-60(TB) leukemia = system: HL-60(TB) leukemia

CCOP(=O)(OCC)/C(C#N)=C/c1cccn1C
TGI (OVCAR-8 ovarian): > 100 µM
TGI (RXF 393 renal): > 100 µM
TGI (TK-10 renal): > 100 µM
TGI (A498 renal): > 100 µM
TGI (HOP-62 NSCLC): > 100 µM
TGI (HOP-92 NSCLC): > 100 µM
TGI (HCT-116 colon): > 100 µM
TGI (KM12 colon): > 100 µM
TGI (HT29 colon): > 100 µM
TGI (OVCAR-4 ovarian): > 100 µM
TGI (MOLT-4 leukemia): > 100 µM
TGI (A549 NSCLC): > 100 µM
TGI (HS 578T breast): > 100 µM
TGI (NCI-H460 lung): > 100 µM
TGI (MCF7 breast): > 100 µM
TGI (CCRF-CEM leukemia): 89 µM
TGI (UO-31 renal): 99.5 µM
TGI (HCT-15 colon): > 100 µM
TGI (CAKI-1 renal): > 100 µM
TGI (SN12C renal): > 100 µM
TGI (SK-OV-3 ovarian): > 100 µM
TGI (BT-549 breast): > 100 µM
TGI (786-0 renal): > 100 µM
TGI (IGROV1 ovarian): > 100 µM
TGI (RPMI-8226 leukemia): > 100 µM
TGI (PC-3 prostate): > 100 µM
TGI (MDA-N): > 100 µM
TGI (SK-MEL-5 melanoma): > 100 µM
TGI (SF-539 CNS): > 100 µM
TGI (DU-145 prostate): > 100 µM
TGI (U251 CNS): > 100 µM
TGI (ACHN renal): > 100 µM
TGI (SW-620 colon): > 100 µM
TGI (COLO 205 colon): > 100 µM
TGI (SNB-75 CNS): > 100 µM
TGI (UACC-257 melanoma): > 100 µM
TGI (SF-268 CNS): > 100 µM
TGI (MDA-MB-435): > 100 µM
TGI (LOX IMVI melanoma): > 100 µM
TGI (SF-295 CNS): > 100 µM
TGI (NCI-H226 lung): > 100 µM
TGI (MALME-3M melanoma): > 100 µM
TGI (HCC-2998 colon): > 100 µM
TGI (M14 melanoma): > 100 µM
TGI (T-47D breast): > 100 µM
TGI (SR leukemia): > 100 µM
TGI (OVCAR-5 ovarian): > 100 µM
TGI (UACC-62 melanoma): > 100 µM
TGI (EKVX NSCLC): > 100 µM
TGI (OVCAR-3 ovarian): > 100 µM
TGI (MDA-MB-231 breast): > 100 µM
TGI (SK-MEL-2 melanoma): > 100 µM
TGI (SNB-19 CNS): > 100 µM
TGI (NCI-H522 lung): > 100 µM
TGI (SK-MEL-28 melanoma): > 100 µM
TGI (NCI/ADR-RES ovarian): > 100 µM
TGI (NCI-H23 lung): > 100 µM

C1=C(c2ccccc2)NC2=N[C@H]3CCCC[C@@H]3N2C1c1ccccc1 (some centres undefined)
TGI (OVCAR-8 ovarian): 27.4 µM
TGI (TK-10 renal): 22.1 µM
TGI (A498 renal): 30.2 µM
TGI (HOP-92 NSCLC): 25.2 µM
TGI (HCT-116 colon): 20.2 µM
TGI (KM12 colon): 22.9 µM
TGI (HT29 colon): 14.8 µM
TGI (OVCAR-4 ovarian): 22.2 µM
TGI (MOLT-4 leukemia): 28.3 µM
TGI (HS 578T breast): 41.2 µM
TGI (NCI-H460 lung): 25.3 µM
TGI (CCRF-CEM leukemia): 43.4 µM
TGI (UO-31 renal): 24.8 µM
TGI (HCT-15 colon): 23.5 µM
TGI (CAKI-1 renal): 29.6 µM
TGI (K-562 leukemia): 72.2 µM
TGI (SK-OV-3 ovarian): 29.3 µM
TGI (BT-549 breast): 24 µM
TGI (786-0 renal): 30.7 µM
TGI (IGROV1 ovarian): 26 µM
TGI (RPMI-8226 leukemia): 49.8 µM
TGI (PC-3 prostate): 23.9 µM
TGI (MDA-N): 29 µM
TGI (SK-MEL-5 melanoma): 27.9 µM
TGI (DU-145 prostate): 29.6 µM
TGI (U251 CNS): 26.1 µM
TGI (ACHN renal): 26.6 µM
TGI (SW-620 colon): 26 µM
TGI (COLO 205 colon): 25.2 µM
TGI (SNB-75 CNS): 24.3 µM
TGI (UACC-257 melanoma): 27.7 µM
TGI (SF-268 CNS): 51.7 µM
TGI (MDA-MB-435): 26.4 µM
TGI (LOX IMVI melanoma): 29.6 µM
TGI (SF-295 CNS): 25.7 µM
TGI (NCI-H226 lung): 28.9 µM
TGI (MALME-3M melanoma): 26.6 µM
TGI (HCC-2998 colon): 28.4 µM
TGI (M14 melanoma): 25.5 µM
TGI (T-47D breast): 35.5 µM
TGI (SR leukemia): 39.3 µM
TGI (HL-60(TB) leukemia): 42.2 µM
TGI (OVCAR-5 ovarian): 26.3 µM
TGI (UACC-62 melanoma): 28.6 µM
TGI (EKVX NSCLC): 29.3 µM
TGI (OVCAR-3 ovarian): 25.8 µM
TGI (MDA-MB-231 breast): 30.2 µM
TGI (SK-MEL-2 melanoma): 32 µM
TGI (SNB-19 CNS): 27.7 µM
TGI (SK-MEL-28 melanoma): 27.4 µM
TGI (NCI/ADR-RES ovarian): 28.7 µM
TGI (NCI-H23 lung): 25.8 µM
